In US6309874A, “Selection marker” (priority 1998, dated 2001):

What was measured:
[1] = test system: ouabain-sensitive (endogenous) Na+,K+-ATPase; test: Pilot studies, ouabain-sensitive enzyme population; type: biochemical
Procedure: (§1) Cells were lysed by treatment with 1 mM Tris-HCl pH 7.5 on ice for 15 min and a crude membrane fraction was prepared as described (Horiuchi, A., Takeyasu, K., Mouradian, M., Jose, P and Felder, R (1993) Mol. Phamiacol. 43, 281-285). The membrane fraction was frozer, in aliquots and stored over-night at -70° C.

[2] = test system: cells transfected with wild type rat Na+,K+-ATPase a1; test: Cell survival in ouabain medium, wild type transfected cells; conditions: 500 μM ouabain
[3] = test system: COS-7 cells expressing L799C Na+,K+-ATPase; test: Cell attachment on fibronectin, L799C transfected cells; type: cell-based, monkey; conditions: different concentrations of ouabain, 0 to 1.0 mM, FIG. 2
Procedure: (§2) Cell attachment on fibronectin coted substrates was assayed in microtiterwells (Costar). All wells were preincubated over night at 4° C. with 5 microg/ml concentration of fibronectin. Before adding cells, each well was preincubated with 1% BSA for 30 min in 37° C. and later washed with serum free DMEM. Untransfected COS-7 cells and COS-7 cells expressing wild type or L799C Na+,K+-ATPase were grown in a 3 microCi/ml H3-thymidine containing medium supplemented with 10% fetal calf serum and harvested after approximately 72 hours at 60-80% confluence. Approximately 25,000 cells /wells were seeded in serum free DMEM. Cells were first incubated 15 min with different concentrations of oubain and then allowed to attach to fibronectin (5 μg/ml) coated substrates during 30 min of incubation in 37° C. and later washed with serum free DMEM. Radioactivity was measured in a Wallac Scintillation counter. Results are presented as % remaining radioactivity compared to untreated.

[4] = test system: cells with mutated murine and human NKA alpha 1-subunit; conditions: read-out: IC50 for ouabain; cells with a mutation in murine and human NKA alpha 1-subunit, Cantley et al 1994; cited from earlier work
[5] = test system: LLC-PK1 cells transfected with mutated (L799C and/or L801C) rat Na+,K+-ATPase alpha1 subunit; test: Survival study, transfected LLC-PK1 cells
[6] = biological target: T1, Leu799Cys (L799C) rat Na+,K+-ATPase a1 subunit (Rattus norvegicus, UniProt P06685, L800C); test: Na+,K+-ATPase-dependent ATP hydrolysis, mutated enzyme; type: biochemical
T1 construct: expressed in transfected cells; crude membrane fraction
Procedure: as §1

[7] = test system: untransfected COS-7 cells; test: Cell attachment on fibronectin, untransfected cells; type: cell-based, monkey; conditions: different concentrations of ouabain, 0 to 1.0 mM, FIG. 2
Procedure: as §2

Na+,K+-ATPase = test: Pilot studies, total Na+,K+-ATPase of transfected cells; type: biochemical; conditions: 10^-5 M ouabain, 10 µM
Procedure: as §1

[8] = test system: cells transfected with mutant rat Na+,K+-ATPase a1; test: Cell survival in ouabain medium, mutant transfected cells
[9] = test system: COS-7 cells expressing wild type Na+,K+-ATPase; test: Cell attachment on fibronectin, wild type transfected cells; type: cell-based, monkey; conditions: different concentrations of ouabain, 0 to 1.0 mM, FIG. 2
Procedure: as §2

[10] = biological target: T2, wild type rat Na+,K+-ATPase a1 subunit (Rattus norvegicus, UniProt P06685); test: Na+,K+-ATPase-dependent ATP hydrolysis, natural enzyme; type: biochemical
T2 construct: expressed in transfected cells; crude membrane fraction
Procedure: as §1

SMILES: C[C@@H]1O[C@@H](O[C@H]2C[C@@H](O)[C@]3(CO)[C@H]4[C@H](O)C[C@]5(C)[C@@H](C6=CC(=O)OC6)CC[C@]5(O)[C@@H]4CC[C@]3(O)C2)[C@H](O)[C@H](O)[C@H]1O [ouabain]
- ouabain concentration that completely inhibited the enzyme population [1]: 10^-5 M
- cell survival [2]: died and died within a few days
- cell attachment to fibronectin coated substrates [3]: no change in attachment
- IC50 [4]: ~5 mM
- growing and morphological characteristics of the cells ([5]; as high as 500×10^-6 M ouabain): did not seem to alter
- cell survival, multiplication and exterior ([5]; ouabain concentrations up to 500 μM): survive, multiply and keep their natural exterior
- inhibition of the enzyme ([6]; ouabain concentrations up to 2 mM): no significant inhibition
- activity at 2000 µM ([6]; read-out: (Na,K)-ATPase activity in percent in comparison with not treated): ~100%
- cell attachment to fibronectin coated substrates [7]: loss of attachment
- cell attachment to fibronectin coated substrates ([7]; listed as oubain): decreased dose dependent
- share of Na+,K+-ATPase resistant to ouabain (Na+,K+-ATPase): Approximately 60%
- ouabain concentration survived by the cells [8]: at least 1×10^-3 M
- cell survival ([8]; longtime treatment with 500 μM ouabain): survived
- cell attachment to fibronectin coated substrates [9]: loss of attachment
- inhibition at 2000 µM [10]: 85 to 90%
- IC100 ([10]; read-out: ouabain concentration that completely inhibited the enzyme population, pilot studies, ouabain-insensitive (transfected) wild type enzyme): 5000 µM
